Assay results taken from US9365522B2, “Pyrazole amide derivative” (AMGEN INC., priority 2015, dated 2016).

Biological target: T1, human RORγ-LBD (Homo sapiens, UniProt P51449)
T1 construct: made in house; host or cells: E. coli (BL-21)
T1 sequence (P51449 262-518): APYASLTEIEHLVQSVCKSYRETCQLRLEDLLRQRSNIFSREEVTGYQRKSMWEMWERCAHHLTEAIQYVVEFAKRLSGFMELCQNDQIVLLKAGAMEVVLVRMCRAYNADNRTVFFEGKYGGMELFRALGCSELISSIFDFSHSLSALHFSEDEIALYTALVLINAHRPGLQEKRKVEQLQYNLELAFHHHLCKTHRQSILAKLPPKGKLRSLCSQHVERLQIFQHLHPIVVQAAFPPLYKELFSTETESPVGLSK
Assay: ROR gamma coactivator peptide recruitment Alphascreen assay (RORγ-LBD binding to GRIP1 coactivator peptide)
Assay type: biochemical
Settings: 5 nM human RORγ-LBD, 30 nM 7-β-hydroxycholesterol, 50 nM biotinylated GRIP1 coactivator peptide, overnight incubation at room temperature; read-out: result (pIC50, RORγ coactivator peptide recruitment Alphascreen assay) (converted)
Procedure, shortened: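 Alphascreen proximity read-out after overnight room-temperature incubation, yielding pIC50 from 1-in-2 compound series (2.5% DMSO final). Mixture: 50 nM biotin-GRIP1 peptide, 30 nM 7-β-hydroxycholesterol agonist, 5 nM recombinant 6×His:Flag human RORγ-LBD (aa 262-518), 50 mM HEPES pH 7.4.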

COC1(CN(CC(=O)c2c(Cl)cncc2Cl)C(=O)c2cnn([C@H]3CC[C@](C)(C(=O)O)CC3)c2C(F)(F)F)CCCCC1 [Example 645, trans-4-(4-((2-(3,5-dichloro-4-pyridinyl)-2-oxoethyl)((1-methoxycyclohexyl)methyl)carbamoyl)-5-(trifluoromethyl)-1H-pyrazol-1-yl)1-methylcyclohexanecarboxylic acid]
IC50: 13.8 nM

C[C@]1(C(=O)O)CC[C@H](n2ncc(C(=O)N(CC(=O)c3c(Cl)cccc3Cl)CC3(F)CC3)c2C(F)(F)F)CC1 [Example 611, trans-4-(4-((2-(2,6-dichlorophenyl)-2-oxoethyl)((1-fluorocyclopropyl)methyl)carbamoyl)-5-(trifluoromethyl)-1H-pyrazol-1-yl)-1-methylcyclohexanecarboxylic acid]
IC50: 6.03 nM

COc1cc(Cl)c(C(=O)CN(CC2CC(C)(C)C2)C(=O)c2cnn([C@H]3CC[C@](C)(C(=O)O)CC3)c2C(F)(F)F)c(Cl)c1 [Example 581]
IC50: 3.47 nM

CCC1(CN(CC(=O)c2c(Cl)cncc2Cl)C(=O)c2cnn([C@H]3CC[C@](C)(C(=O)O)CC3)c2C(F)(F)F)CCC1 [Example 742, trans-4-(4-((2-(3,5-dichloro-4-pyridinyl)-2-oxoethyl)((1-ethylcyclobutyl)methyl)carbamoyl)-5-(trifluoromethyl)-1H-pyrazol-1-yl)-1-methylcyclohexanecarboxylic acid]
IC50: 2.63 nM

C[C@]1(C(=O)O)CC[C@H](n2ncc(C(=O)N(CC(=O)c3c(Cl)cccc3Cl)[C@H]3CCC34CCC4)c2C(F)(F)F)CC1 [Example 641, trans-4-(4-((2-(2,6-dichlorophenyl)-2-oxoethyl)((1S)-spiro[3.3]hept-1-yl)carbamoyl)-5-(trifluoromethyl)-1H-pyrazol-1-yl)-1-methylcyclohexanecarboxylic acid]
IC50: 2.14 nM

C[C@@H]1CC(n2ncc(C(=O)N(CC(=O)c3c(Cl)cccc3Cl)CC(C)(C)C)c2C(F)(F)F)CCC1C(=O)O (stereo in doubt) [Example 794, (1S,2R,4S)-4-(4-((2-(2,6-dichlorophenyl)-2-oxoethyl)(2,2-dimethylpropyl)carbamoyl)-5-(trifluoromethyl)-1H-pyrazol-1-yl)-2-methylcyclohexanecarboxylic acid]
IC50: 2.95 nM

CC1(C)CC[C@H](CN(CC(=O)c2c(Cl)cncc2Cl)C(=O)c2cnn([C@H]3CC[C@](C)(C(=O)O)CC3)c2C(F)(F)F)O1 [Example 655, trans-4-(4-((2-(3,5-dichloro-4-pyridinyl)-2-oxoethyl)(((2R)-5,5-dimethyltetrahydro-2-furanyl)methyl)carbamoyl)-5-(trifluoromethyl)-1H-pyrazol-1-yl)-1-methylcyclohexanecarboxylic acid]
IC50: 26.9 nM

C[C@@H]1C[C@H](n2ncc(C(=O)N(CC(=O)c3c(Cl)cncc3Cl)CC(C)(C)C(F)(F)F)c2C(F)(F)F)CC[C@H]1C(=O)O [Example 878, (1R,2R,4R)-4-(4-((2-(3,5-dichloro-4-pyridinyl)-2-oxoethyl)(3,3,3-trifluoro-2,2-dimethylpropyl)carbamoyl)-5-(trifluoromethyl)-1H-pyrazol-1-yl)-2-methylcyclohexanecarboxylic acid]
IC50: 3.89 nM

Cc1cc(Cl)c(C(=O)CN(CC2CC2)C(=O)c2cnn([C@H]3CC[C@](C)(C(=O)O)CC3)c2C(F)(F)F)c(Cl)c1 [Example 707, trans-4-(4-((cyclopropylmethyl)(2-(2,6-dichloro-4-methylphenyl)-2-oxoethyl)carbamoyl)-5-(trifluoromethyl)-1H-pyrazol-1-yl)-1-methylcyclohexanecarboxylic acid]
IC50: 6.17 nM

CCC1(CN(CC(=O)c2c(Cl)cc(C)cc2Cl)C(=O)c2cnn([C@H]3CC[C@](C)(C(=O)O)CC3)c2C(F)(F)F)CCC1 [Example 744, trans-4-(4-((2-(2,6-dichloro-4-methylphenyl)-2-oxoethyl)((1-ethylcyclobutyl)methyl)carbamoyl)-5-(trifluoromethyl)-1H-pyrazol-1-yl)-1-methylcyclohexanecarboxylic acid]
IC50: 0.589 nM

O=C(c1cnn([C@H]2CC[C@H](C(=O)O)CC2)c1C(F)(F)F)N(CCc1c(Cl)cccc1Cl)Cc1ccc(Cl)cc1 [Example 501, trans-4-(4-((4-chlorobenzyl)(2-(2,6-dichlorophenyl)ethyl)carbamoyl)-5-(trifluoromethyl)-1H-pyrazol-1-yl)cyclohexanecarboxylic acid]
IC50: 3.8 nM

CC(C)(C)CN(CC(=O)c1c(Cl)cncc1Cl)C(=O)c1cnn([C@H]2CC[C@@]3(C(=O)O)CCC[C@H]3C2)c1C(F)(F)F [Example 876, (3aS,6S,7aS )-6-(4-((2-(3,5-dichloropyridin-4-yl)-2-oxoethyl)(neopentyl)carbamoyl)-5-(trifluoromethyl)-1H-pyrazol-1-yl)octahydro-1H-indene-3a-carboxylic acid]
IC50: 6.17 nM

C[C@]1(C(=O)O)CC[C@H](n2ncc(C(=O)N(CC(=O)c3c(Cl)cncc3Cl)[C@H]3C[C@@H]4CC[C@H]3C4)c2C(F)(F)F)CC1 [Example 677, trans-4-(4-((1S,2R,4R)-bicyclo[2.2.1]hept-2-yl(2-(3,5-dichloro-4-pyridinyl)-2-oxoethyl)carbamoyl)-5-(trifluoromethyl)-1H-pyrazol-1-yl)-1-methylcyclohexanecarboxylic acid]
IC50: 5.62 nM

O=C(CN(CC1(F)CCCC1)C(=O)c1cnn([C@H]2CC[C@@H](C(=O)O)CC2)c1C(F)(F)F)c1c(Cl)cncc1Cl [Example 667, cis-4-(4-((2-(3,5-dichloro-4-pyridinyl)-2-oxoethyl)((1-fluorocyclopentyl)methyl)carbamoyl)-5-(trifluoromethyl)-1H-pyrazol-1-yl)cyclohexanecarboxylic acid]
IC50: 302 nM

CC1(C)CC(CN(CCc2c(Cl)cncc2Cl)C(=O)c2cnn([C@H]3CC[C@](C)(C(=O)O)CC3)c2C(F)(F)F)C1 [Example 556, trans-4-(4-((2-(3,5-dichloro-4-pyridinyl)ethyl)((3,3-dimethylcyclobutyl)methyl)carbamoyl)-5-(trifluoromethyl)-1H-pyrazol-1-yl)-1-methylcyclohexanecarboxylic acid]
IC50: 2.4 nM

C[C@]1(C(=O)O)CC[C@H](n2ncc(C(=O)N(CC(=O)c3c(Cl)cccc3Cl)[C@H]3CCC34CCCC4)c2C(F)(F)F)CC1 [Example 649, trans-4-(4-((2-(2,6-dichlorophenyl)-2-oxoethyl)((1S)-spiro[3.4]oct-1-yl)carbamoyl)-5-(trifluoromethyl)-1H-pyrazol-1-yl)-1-methylcyclohexanecarboxylic acid]
IC50: 1.82 nM

C[C@H]1C[C@](C)(C(=O)O)CC[C@H]1n1ncc(C(=O)N(CC(=O)c2c(Cl)cncc2Cl)CC(C)(C)C)c1C(F)(F)F (stereo in doubt) [Example 842, (1R,3S,4R)-4-(4-((2-(3,5-dichloro-4-pyridinyl)-2-oxoethyl)(2,2-dimethylpropyl)carbamoyl)-5-(trifluoromethyl)-1H-pyrazol-1-yl)-1,3-dimethylcyclohexanecarboxylic acid]
IC50: 309 nM

CC1(C)C[C@H](CN(CC(=O)c2c(Cl)cncc2Cl)C(=O)c2cnn([C@H]3CC[C@](C)(C(=O)O)CC3)c2C(F)(F)F)O1 [Example 685, trans-4-(4-((2-(3,5-dichloro-4-pyridinyl)-2-oxoethyl)(((2R)-4,4-dimethyl-2-oxetanyl)methyl)carbamoyl)-5-(trifluoromethyl)-1H-pyrazol-1-yl)-1-methylcyclohexanecarboxylic acid]
IC50: 97.7 nM

CC1(CN(CCc2c(Cl)cncc2Cl)C(=O)c2cnn([C@H]3CC[C@@H](C(=O)O)CC3)c2C(F)(F)F)CC1 [Example 563, cis-4-(4-((2-(3,5-dichloro-4-pyridinyl)ethyl)((1-methylcyclopropyl)methyl)carbamoyl)-5-(trifluoromethyl)-1H-pyrazol-1-yl)cyclohexanecarboxylic acid]
IC50: 204 nM

CC1(C)CCC(N(CCc2c(Cl)cncc2Cl)C(=O)c2cnn([C@H]3CC[C@H](C(=O)O)CC3)c2C(F)(F)F)CC1 [Example 550, trans-4-(4-((2-(3,5-dichloro-4-pyridinyl)ethyl)(4,4-dimethylcyclohexyl)carbamoyl)-5-(trifluoromethyl)-1H-pyrazol-1-yl)cyclohexanecarboxylic acid]
IC50: 21.4 nM

Cc1cc(Cl)c(C(=O)CN(Cc2ccc(Cl)cc2)C(=O)c2cnn([C@H]3CC[C@H](C(=O)O)CC3)c2C(F)(F)F)c(Cl)n1 [Example 543, trans-4-(4-((4-chlorobenzyl)(2-(2,4-dichloro-6-methyl-3-pyridinyl)-2-oxoethyl)carbamoyl)-5-(trifluoromethyl)-1H-pyrazol-1-yl)cyclohexanecarboxylic acid]
IC50: 3.31 nM

C[C@@H]1C[C@H](n2ncc(C(=O)N(CC(=O)c3c(Cl)cncc3Cl)CC(C)(C)C)c2C(F)(F)F)CC[C@H]1C(=O)O [Example 812, (1R,2R,4R)-4-(4-((2-(3,5-dichloro-4-pyridinyl)-2-oxoethyl)(2,2-dimethylpropyl)carbamoyl)-5-(trifluoromethyl)-1H-pyrazol-1-yl)-2-methylcyclohexanecarboxylic acid]
IC50: 9.33 nM

Cc1cc(Cl)c(C(=O)CN(CC2CCC2)C(=O)c2cnn([C@H]3CC[C@](C)(C(=O)O)CC3)c2C(F)(F)F)c(Cl)c1 [Example 733, trans-4-(4-((cyclobutylmethyl)(2-(2,6-dichloro-4-methylphenyl)-2-oxoethyl)carbamoyl)-5-(trifluoromethyl)-1H-pyrazol-1-yl)-1-methylcyclohexanecarboxylic acid]
IC50: 2.51 nM
